Data as given in US20240400986A1, “MEMBRANE BOUND COMPOSITIONS AND METHODS RELATING TO SAME” (FLAGSHIP PIONEERING INNOVATIONS VII, LLC, priority 2021, published 2024).
Read-outs that look alike come from different tables or passages of the source.

Columns and labels:
[1] = test system: neuronal cell line derived from human neuroblastoma; conditions: neuronal cells, 24 hours
[2] = test system: neuronal cell line derived from human neuroblastoma
[3] = test system: neuronal cell line derived from human neuroblastoma; test: Small molecule compound screen of gigasome production in neuronal monocultures
[4] = test system: cardiomyocytic cell line derived from human ventricular heart tissue; test: Cell viability in cardiomyocyte compound screen (CellTiter-Glo); format: cell-based; conditions: Table 22, cardiomyocytes, 24 hours
Excerpt: Cells were stained with Hoechst 34580, CellTracker Green/CellMask Green Actin and MitoTracker Deep Red to detect nuclear material, cytoplasm/F-actin, and mitochondria, respectively, and cultured in poly-L-lysine-coated 96-well glass bottom plates at 15,800 cells/cm^2 and allowed to adhere overnight. For the screening, a total of 100 randomly organized compounds (TargetMol) were divided in 5 groups. Each group included an untreated condition, a vehicular DMSO control, and a known high-gigasome producing condition to comparatively study gigasome production rates. As a cell death control group, 500 nM Staurosporine was added to induce apoptosis. Cultures were incubated for 24 hours under gigasome inducing conditions at concentrations ranging between 10 nM and 10,000 nM. […] Cells remaining in the 96-well plates were assessed for viability using CellTiter-Glo (Promega).

[5] = test system: cardiomyocytic cell line derived from human ventricular heart tissue; test: Small molecule compound screen of gigasome production in cardiomyocytic monocultures; conditions: Table 22, cardiomyocytes, 24 hours;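 also: gigasomes shed into the culture medium were imaged by confocal microscopy and counted as round particles lacking nuclear signal, extrapolated to the whole well, fold change is relative to DMSO vehicle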
Experimental: For the screening, a total of 100 randomly organized compounds (TargetMol) were divided in 5 groups. Each group included an untreated condition, a vehicular DMSO control, and a known high-gigasome producing condition to comparatively study gigasome production rates. As a cell death control group, 500 nM Staurosporine was added to induce apoptosis. Cultures were incubated for 24 hours under gigasome inducing conditions at concentrations ranging between 10 nM and 10,000 nM. […] The Zeiss ZEN Blue software was used to distribute imaging fields of view (positions) to create an unbiased imaging sample of a well. 5 images were taken using a Zeiss LSM 900 confocal microscope. […] The BioApps ZEN software package was used to perform cell nucleus segmentation and counting. After 24 hours, gigasomes were harvested from the cell culture media by gently removing from the top of each 96-well ⅔ of the total volume without disturbing the cell layer (containing the settled gigasomes) and by adding to each well the same amount of PBS containing 0.5 mM EDTA. The wells were washed twice gently, and the gigasome-containing media/0.5 mM EDTA PBS wash was transferred into the well of a 384-well glass bottom plate. Cells remaining in the 96-well plates were assessed for viability using CellTiter-Glo (Promega).
For gigasome analysis in 384-well plates, the Zeiss ZEN Blue software was used to distribute positions to create an unbiased imaging sample of a well. 6 images per well were taken using a Zeiss LSM 900 confocal microscope. […] A watershed binary segmentation step was performed to separate grouped objects. For each particle in the mask, characteristic parameters of the particle were calculated and saved. […] Particles of interest were identified by thresholding by area and circularity. […] Circularity, defined by the formula 4pi(area/perimeter^2, was set to be between 0.8, where a value of 1.0 is a perfect circle, and a value of 0 is a line. Gigasomes were identified from the particles of interest by thresholding by mean nuclear signal. The nuclear signal threshold was set using a value equal to one quarter of a threshold value calculated by the Li auto-threshold algorithm applied to the distribution of all particles of interest. Particles of interest with nuclear signal below this value were considered “negative” for nuclear material and were identified as gigasomes. A sampling factor was calculated to extrapolate the total quantity of a type of object (particles, particles of interest, gigasomes) in the well. The sampling factor was the percentage of the well's area that was imaged. […] In some experiments, the number of cells in the cell cultures were estimated with a cell counter. […] The normalized quantity or distribution of objects was described as a quantity or distribution of objects per 1000 cells.

[6] = test system: neuronal cells; test: Gigasome-mediated extraction of stress granule-associated protein HuR (fixed plates, confocal); format: cell-based, human; conditions: 5 μM sodium arsenite, 0.2 μM MG-132, alone or combined, 24 h
Experimental: For this paradigm, cells were treated with a low sodium arsenite concentration of 5 μM either alone or in combination with the proteasome inhibitor MG-132 at 0.2 μM. A vehicular control amount of DMSO was added to the media to comparatively study cargo signals within cells and gigasomes. Treatments were carried out in reduced serum-containing media for 24 hours to mimic a chronic exposure to arsenite. The presence of the stress-granule-related cargo within cells and in gigasomes was characterized and quantified by confocal microscopy analysis of 4% paraformaldehyde. Non-specific labeling was blocked by incubation with 5% normal goat serum in PBS in the presence of 0.1% Triton X-100, for 2 h at room temperature, followed by immunolabeling with an antibody against the RNA-binding protein HuR (see Table 12) and incubation with Alexa Fluor® 568 secondary antibodies. Phalloidin Alexa Fluor® 488 was used to mark the proximal plasma membrane. Nuclei were counterstained with DAPI.
Images were captured using a Zeiss LSM 900 confocal microscope and a 40× objective. For analysis, 10×16-bit images per well were processed to obtain a final total range of 75-200 cells. Composite images were separated in the different channels. The background was subtracted from the red cargo-related channel, as described in Example 13a. The nuclear signal in the blue channel was thresholded using the “Yen” autothreshold algorithm. To measure the nuclear-to-cytosolic translocation of the stress-granule-related protein cargo upon treatment, firstly, the cargo-related nuclear signal was subtracted from the respective red channel image by creating a nuclear selection from the thresholded blue channel image, which was added to ImageJ Manager. The nuclear selection was then transferred to the background-subtracted red channel and the nuclear cargo signal was removed from the image leaving only the cytosolic signal. The cleared red channel image was thresholded using the “default” autothreshold algorithm for downstream particle analysis. To measure the cytosolic cargo signal, a cellular mask was then generated by thresholding the Green/F-actin channel using the “Li” autothreshold method. A cytosolic selection was created, added to ImageJ Manager, and transferred to the background subtracted, nuclear-cleared red channel image. The cytosolic cargo signal (integrated density) was measured and normalized to the number of nuclei counted in each field. Particle analysis was performed as described in Example 13a, using the thresholded green channel to identify particles of interest by filtering by area and circularity and re-directing to the blue and red channel for absence of nuclear signal and eventual presence of disease-related cargo, respectively. The quantity or distribution of objects obtained from the particle analysis was obtained as described in Example 13a.

[7] = test system: neuronal cells; test: Gigasome-mediated extraction of APP-CTFs upon γ-secretase and proteasome inhibition (fixed plates, confocal); format: cell-based, human; conditions: γ-secretase inhibitor 5 μM, MG-132 0.1 μM, alone or combined; 24 h; compared to DMSO
Experimental: Cells were treated with the γ-secretase inhibitor L-685,458 at 5 μM, either alone or in combination with the proteasome inhibitor MG-132 at 0.1 μM. A vehicular control amount of DMSO was added to the media to comparatively study cargo signals within cells and gigasomes. Treatments were carried out in reduced serum-containing media (3% FBS) for 24 hours. Disease-related cargo presence within cells and in gigasomes was characterized and quantified by confocal microscopy analysis of 4% paraformaldehyde fixed cells, following (immuno)fluorescent labeling of cytosolic, nuclear and cargo-specific protein markers. In some experiments β-III tubulin and Alexa Fluor® 488 phalloidin were used to mark the cytosol and proximal plasma membrane, respectively. To detect APP-CTFs, an antibody against the C-terminus of APP (C-APP) was used (see Table 12). Non-specific labeling was blocked by incubation with 5% normal goat serum in PBS in the presence of 0.05% saponin, for 1 h at room temperature. Primary antibodies were incubated overnight at 4° C., followed by incubation with Alexa Fluor®-conjugated secondary antibodies for 1 hour at room temperature. Nuclei were counterstained with DAPI.
A range of 5-8 images per well were taken from replicate experiments to capture a final total range of 150-200 cells. […] The cellular cargo fluorescence intensity in the red channel was quantified by subtracting the background signal from each image, using the ImageJ built-in “subtract background” function with a default rolling ball radius of 50 pixel. The cargo signal (integrated density) in the red channel was measured and normalized to the number of nuclei counted in each field. […]
For particle analysis, the cytosolic and F-actin/membrane signals were merged into single RGB image, converted to grayscale and then thresholded to create a cellular mask of objects in the field of view, as calculated by the “Li” autothreshold algorithm. […] The quantity or distribution of objects obtained from the particle analysis was divided by the number of cells counted in each field to obtain a normalized quantity or distribution.

[8] = Homo sapiens, 24 h, read-out: Fold Change of Gigasomes Produced vs. DMSO
[9] = neuronal cells, dose 1000 nM, 24 hours

Structure (SMILES): Cn1cncc1[C@@](N)(c1ccc(Cl)cc1)c1ccc2c(c1)c(-c1cccc(Cl)c1)cc(=O)n2C [Tipifarnib]
- Number of Gigasomes Produced ([1]; dose 10 nM): <35
- Number of Gigasomes Produced ([1]; dose 100 nM): 55-65
- Number of Gigasomes Produced ([1]; dose 1000 nM): 65-75
- Viability ([2]; human, 24 h, 10 nM): >75%
- Viability ([2]; human, 24 h, 100 nM): >75%
- Viability ([2]; human, 24 h, 1000 nM): 50-75%
- fold induction at 0.01 µM [3, 8]: 0.75 to 1
- fold induction at 0.1 µM [3, 8]: 1.5 to 1.75
- fold induction at 1 µM [3, 8]: 1.75 to 2

Structure (SMILES): CC1=C(O)C(=O)C=C2C1=CC=C1[C@@]2(C)CC[C@@]2(C)[C@@H]3C[C@](C)(C(=O)O)CC[C@]3(C)CC[C@]12C [Tripterin, reference compound]
- Viability ([4]; dose 100 nM): >75%
- Viability ([4]; dose 1000 nM): 50-75%
- Viability [2, 9]: >75%
- Fold Change of Gigasomes Produced vs. DMSO [3, 9]: 2.0-3.0
- Number of Gigasomes Produced [3, 9]: 75-85
- Fold Change of Gigasomes Produced vs. DMSO ([5]; dose 100 nM): 0.75-1.0
- Number of Gigasomes Produced ([5]; dose 100 nM): <150
- Fold Change of Gigasomes Produced vs. DMSO ([5]; dose 1000 nM): 3.0-4.0
- Number of Gigasomes Produced ([5]; dose 1000 nM): 375-400

Structure (SMILES): O=[As]O [sodium arsenite]
- HuR cytosolic signal ([6]; compared to DMSO (FIG. 7B)): increased
- gigasomes per 1000 cells ([6]; fixed plates (FIG. 7C)): 200 per 1000 cells

Structure (SMILES): CC(C)C[C@H](NC(=O)[C@H](Cc1ccccc1)C[C@@H](O)[C@H](Cc1ccccc1)NC(=O)OC(C)(C)C)C(=O)N[C@@H](Cc1ccccc1)C(N)=O [γ-secretase inhibitor, L-685,458]
- intracellular APP-CTF levels (C-APP immunoreactivity) [7]: increase
